These results are taken from PMC5218480 (PLoS ONE, 2017).

The subject of this assay is MV-4-11 cells. Description: Gene expression microarray analysis (Affymetrix PrimeView) and GSEA. The format is cell-based, human. More on the design: RFU PODN (11730768_x_at) / Fold change /veh PODN (11730768_x_at) / RFU LINC00158 (11744669_a_at) / Fold change /veh LINC00158 (11744669_a_at) / RFU DUSP10 (11751237_a_at) / Fold change /veh DUSP10 (11751237_a_at) / RFU ID3 (11757404_x_at) / Fold change /veh ID3 (11757404_x_at) / RFU PLEKHG5 (11737974_s_at) / Fold change /veh PLEKHG5 (11737974_s_at) / RFU LRRC4B (11730491_at) / Fold change /veh LRRC4B (11730491_at) / RFU GIMAP4 (11747438_a_at) / Fold change /veh GIMAP4 (11747438_a_at) / RFU KRT8 (11758183_x_at) / Fold change /veh KRT8 (11758183_x_at) / RFU CNN1 (11734310_a_at) / Fold change /veh CNN1 (11734310_a_at) / RFU VPS37D (11726825_at) / Fold change /veh VPS37D (11726825_at) / RFU C10orf10 (11716522_x_at) / Fold change /veh C10orf10 (11716522_x_at) / RFU KIR2DL2 /// KIR2DL4 /// KIR2DL5A /// KIR2DL5B /// KIR2DS1 /// KIR2DS2 /// KIR2DS3 /// KIR2DS4 /// KIR3DL3 /// KIR3DL3 /// KIR3DS1 (11738374_at) / Fold change /veh KIR2DL2 /// KIR2DL4 /// KIR2DL5A /// KIR2DL5B /// KIR2DS1 /// KIR2DS2 /// KIR2DS3 /// KIR2DS4 /// KIR3DL3 /// KIR3DL3 /// KIR3DS1 (11738374_at) / RFU C1QL1 (11718748_at) / Fold change /veh C1QL1 (11718748_at) / RFU TMPRSS4 (11747572_a_at) / Fold change /veh TMPRSS4 (11747572_a_at) / RFU HAMP (11756126_x_at) / Fold change /veh HAMP (11756126_x_at) / RFU RNFT2 (11725882_a_at) / Fold change /veh RNFT2 (11725882_a_at) / RFU NR4A2 (11747474_a_at) / Fold change /veh NR4A2 (11747474_a_at) / RFU ABCC12 (11746883_a_at) / Fold change /veh ABCC12 (11746883_a_at) / RFU TMEM136 (11760407_x_at) / Fold change /veh TMEM136 (11760407_x_at) / RFU CLDN22 /// WWC2 (11732394_at) / Fold change /veh CLDN22 /// WWC2 (11732394_at) / RFU HLA-DPB1 (11760878_x_at) / Fold change /veh HLA-DPB1 (11760878_x_at) / RFU SPINT1 (11716480_a_at) / Fold change /veh SPINT1 (11716480_a_at) / RFU GAP43 (11754022_s_at) / Fold change /veh GAP43 (11754022_s_at) / RFU A4GNT (11735810_at) / Fold change /veh A4GNT (11735810_at) / RFU PRB3 (11715151_x_at) / Fold change /veh PRB3 (11715151_x_at) / RFU TUBB4B (11761932_at) / Fold change /veh TUBB4B (11761932_at) / RFU CAPN14 (11732068_a_at) / Fold change /veh CAPN14 (11732068_a_at) / RFU TMCC2 (11721928_a_at) / Fold change /veh TMCC2 (11721928_a_at) / RFU IRGQ (11745062_a_at) / Fold change /veh IRGQ (11745062_a_at) / RFU FAM174B (11720279_a_at) / Fold change /veh FAM174B (11720279_a_at) / RFU TMPRSS4 (11748680_a_at) / Fold change /veh TMPRSS4 (11748680_a_at) / RFU FAM212B (11763350_a_at) / Fold change /veh FAM212B (11763350_a_at) / RFU PLEKHG5 (11743358_a_at) / Fold change /veh PLEKHG5 (11743358_a_at) / RFU ZSCAN30 (11745921_a_at) / Fold change /veh ZSCAN30 (11745921_a_at) / RFU CMKLR1 (11741424_a_at) / Fold change /veh CMKLR1 (11741424_a_at) / RFU LOC101060620 /// MAPK8IP1 (11723275_at) / Fold change /veh LOC101060620 /// MAPK8IP1 (11723275_at) / RFU SPTSSB (11747773_x_at) / Fold change /veh SPTSSB (11747773_x_at) / RFU PRSS12 (11739890_at) / Fold change /veh PRSS12 (11739890_at) / RFU BIN1 (11741810_x_at) / Fold change /veh BIN1 (11741810_x_at) / RFU WNT11 (11732464_a_at) / Fold change /veh WNT11 (11732464_a_at) / RFU C10orf10 (11716521_a_at) / Fold change /veh C10orf10 (11716521_a_at) / RFU C5orf56 (11738089_at) / Fold change /veh C5orf56 (11738089_at) / RFU CYB561 (11721691_x_at) / Fold change /veh CYB561 (11721691_x_at) / RFU ANKRD19P (11752326_a_at) / Fold change /veh ANKRD19P (11752326_a_at) / RFU OR2T12 /// OR2T33 /// OR2T8 (11738714_s_at) / Fold change /veh OR2T12 /// OR2T33 /// OR2T8 (11738714_s_at) / RFU VCAN (11748164_a_at) / Fold change /veh VCAN (11748164_a_at) / RFU JSRP1 (11732532_at) / Fold change /veh JSRP1 (11732532_at) / RFU KRTAP10-11 (11738290_x_at) / Fold change /veh KRTAP10-11 (11738290_x_at) / RFU MYO3A (11730013_a_at) / Fold change /veh MYO3A (11730013_a_at) / RFU EBF3 (11725865_a_at) / Fold change /veh EBF3 (11725865_a_at) / RFU CAMK2N1 (11719241_x_at) / Fold change /veh CAMK2N1 (11719241_x_at) / RFU C5orf56 (11738088_a_at) / Fold change /veh C5orf56 (11738088_a_at) / RFU OLFML3 (11715873_a_at) / Fold change /veh OLFML3 (11715873_a_at) / RFU LOC100653217 /// NTM (11731650_a_at) / Fold change /veh LOC100653217 /// NTM (11731650_a_at) / RFU MAPK11 (11762145_a_at) / Fold change /veh MAPK11 (11762145_a_at) / RFU FIZ1 (11724087_x_at) / Fold change /veh FIZ1 (11724087_x_at) / RFU OASL (11726364_x_at) / Fold change /veh OASL (11726364_x_at) / RFU SOX15 (11748057_x_at) / Fold change /veh SOX15 (11748057_x_at) / RFU CD79A (11719716_a_at) / Fold change /veh CD79A (11719716_a_at) / RFU HIST1H1D (11736915_at) / Fold change /veh HIST1H1D (11736915_at) / RFU CASKIN2 (11723855_a_at) / Fold change /veh CASKIN2 (11723855_a_at) / RFU LOC730098 (11760151_x_at) / Fold change /veh LOC730098 (11760151_x_at) / RFU OR4N2 (11742367_at) / Fold change /veh OR4N2 (11742367_at) / RFU PRRT2 (11749266_a_at) / Fold change /veh PRRT2 (11749266_a_at) / RFU SNX32 (11753110_a_at) / Fold change /veh SNX32 (11753110_a_at) / RFU CDHR5 (11726645_a_at) / Fold change /veh CDHR5 (11726645_a_at) / RFU RCAN1 (11760418_a_at) / Fold change /veh RCAN1 (11760418_a_at) / RFU FAM167A (11723789_a_at) / Fold change /veh FAM167A (11723789_a_at) / RFU FAM26E (11764081_at) / Fold change /veh FAM26E (11764081_at) / RFU ISYNA1 (11749810_s_at) / Fold change /veh ISYNA1 (11749810_s_at) / RFU ACY1 (11761880_at) / Fold change /veh ACY1 (11761880_at) / RFU 11764098_at / Fold change /veh 11764098_at / RFU SAMD14 (11745864_x_at) / Fold change /veh SAMD14 (11745864_x_at) / RFU NPB (11741838_a_at) / Fold change /veh NPB (11741838_a_at) / RFU TMPRSS6 (11731388_a_at) / Fold change /veh TMPRSS6 (11731388_a_at) / RFU KRTAP10-2 (11738614_at) / Fold change /veh KRTAP10-2 (11738614_at) / RFU ARHGAP8 /// PRR5-ARHGAP8 (11727945_x_at) / Fold change /veh ARHGAP8 /// PRR5-ARHGAP8 (11727945_x_at) / RFU KRTAP5-7 /// NADSYN1 (11734609_at) / Fold change /veh KRTAP5-7 /// NADSYN1 (11734609_at) / RFU RASL12 (11751679_a_at) / Fold change /veh RASL12 (11751679_a_at) / RFU CDKN2B (11736163_a_at) / Fold change /veh CDKN2B (11736163_a_at) / RFU PRF1 (11729649_at) / Fold change /veh PRF1 (11729649_at) / RFU, ZNF638 /// ZNF638-IT1 / Fold change vs veh, ZNF638 /// ZNF638-IT1 / RFU, PANK3 / Fold change vs veh, PANK3 / RFU, SH3YL1 / Fold change vs veh, SH3YL1 / RFU, ZEB2 / Fold change vs veh, ZEB2 / RFU, NRIP1 / Fold change vs veh, NRIP1 / RFU, PTTG1IP / Fold change vs veh, PTTG1IP / RFU, CAPN2 / Fold change vs veh, CAPN2 / RFU, MED14 / Fold change vs veh, MED14 / RFU, SNORA58 / Fold change vs veh, SNORA58 / RFU, C1orf63 / Fold change vs veh, C1orf63 / RFU, LRRFIP1 / Fold change vs veh, LRRFIP1 / RFU, NDUFAF7 / Fold change vs veh, NDUFAF7 / RFU, SLC12A2 / Fold change vs veh, SLC12A2 / RFU, IBTK / Fold change vs veh, IBTK / RFU, ESF1 / Fold change vs veh, ESF1 / Fold change vs veh, TMEM50B / RFU, TAOK1 / Fold change vs veh, TAOK1 / RFU, ACBD3 / Fold change vs veh, ACBD3 / RFU, TMA16 / Fold change vs veh, TMA16 / RFU, RWDD3 / Fold change vs veh, RWDD3 / RFU, BCAT1 / Fold change vs veh, BCAT1 / RFU, EDEM3 / Fold change vs veh, EDEM3 / RFU, TMEM33 / Fold change vs veh, TMEM33 / RFU, WDR75 / Fold change vs veh, WDR75 / RFU, AHCTF1 / Fold change vs veh, AHCTF1 / RFU, TFRC / Fold change vs veh, TFRC / RFU, ZDHHC17 / Fold change vs veh, ZDHHC17 / RFU, NOM1 / Fold change vs veh, NOM1 / RFU, ARL8B / Fold change vs veh, ARL8B / RFU, ZBTB11 / Fold change vs veh, ZBTB11 / RFU, TAMM41 / Fold change vs veh, TAMM41 / RFU, KIAA1704 /// LOC100996395 / Fold change vs veh, KIAA1704 /// LOC100996395 / RFU, ING1 / Fold change vs veh, ING1 / RFU, TRMT61B / Fold change vs veh, TRMT61B / RFU, FUBP3 / Fold change vs veh, FUBP3 / RFU, TP53 / Fold change vs veh, TP53 / RFU, TNKS2 / Fold change vs veh, TNKS2 / RFU, ZFP14 / Fold change vs veh, ZFP14 / RFU, ACTR2 / Fold change vs veh, ACTR2 / RFU, PPP3R1 / Fold change vs veh, PPP3R1 / RFU, PIK3R1 / Fold change vs veh, PIK3R1 / RFU, HNRNPA1 / Fold change vs veh, HNRNPA1 / RFU, RNF170 / Fold change vs veh, RNF170 / RFU, ZNF28 / Fold change vs veh, ZNF28 / RFU, RNGTT / Fold change vs veh, RNGTT / RFU, OGT / Fold change vs veh, OGT / RFU, BRD1 / Fold change vs veh, BRD1 / RFU, MARS / Fold change vs veh, MARS / RFU, ZNF655 / Fold change vs veh, ZNF655 / RFU, FAHD1 / Fold change vs veh, FAHD1 / RFU, BDP1 / Fold change vs veh, BDP1 / RFU, LRRCC1 / Fold change vs veh, LRRCC1 / RFU, ARID1A / Fold change vs veh, ARID1A / RFU, ZNF146 / Fold change vs veh, ZNF146 / RFU, ZNF330 / Fold change vs veh, ZNF330 / RFU, GPN3 / Fold change vs veh, GPN3 / RFU, C9orf123 / Fold change vs veh, C9orf123 / RFU, N4BP2L2 / Fold change vs veh, N4BP2L2 / RFU, ARFIP1 / Fold change vs veh, ARFIP1 / RFU, FAM179B / Fold change vs veh, FAM179B / RFU, BCL10 / Fold change vs veh, BCL10 / RFU, UHRF1BP1L / Fold change vs veh, UHRF1BP1L / RFU, BET1 / Fold change vs veh, BET1 / RFU, CNOT2 / Fold change vs veh, CNOT2 / RFU, ZNF268 / Fold change vs veh, ZNF268 / Fold change vs veh, ZNF507 / RFU, DGCR2 / Fold change vs veh, DGCR2 / RFU, WDSUB1 / Fold change vs veh, WDSUB1 / Fold change vs veh, HSP90B1 /// MIR3652 / RFU, ADSS / Fold change vs veh, ADSS / RFU, GK / Fold change vs veh, GK / RFU, ZNF148 / Fold change vs veh, ZNF148 / RFU, TAF9 / Fold change vs veh, TAF9 / RFU, SLC1A5 / Fold change vs veh, SLC1A5 / RFU, SLMO2 / Fold change vs veh, SLMO2 / RFU, ABCC4 / Fold change vs veh, ABCC4 / RFU, LOC101060439 /// RAP1B / Fold change vs veh, LOC101060439 /// RAP1B / RFU, RFX7 / Fold change vs veh, RFX7 / RFU, GTPBP10 / Fold change vs veh, GTPBP10 / RFU, CNEP1R1 / Fold change vs veh, CNEP1R1 / RFU, BIVM-ERCC5 /// ERCC5 / Fold change vs veh, BIVM-ERCC5 /// ERCC5 / RFU, ILF3 / Fold change vs veh, ILF3 / RFU 11762660_at / Fold change /veh 11762660_at / RFU VCAN (11757783_s_at) / Fold change /veh VCAN (11757783_s_at) / RFU DDX43 (11728927_at) / Fold change /veh DDX43 (11728927_at) / RFU KRT8 (11758188_x_at) / Fold change /veh KRT8 (11758188_x_at) / RFU NKD1 (11759106_at) / Fold change /veh NKD1 (11759106_at) / RFU SRD5A1 (11742802_a_at) / Fold change /veh SRD5A1 (11742802_a_at) / RFU TPSAB1 /// TPSB2 (11721975_s_at) / Fold change /veh TPSAB1 /// TPSB2 (11721975_s_at) / RFU GSTM3 (11746129_a_at) / Fold change /veh GSTM3 (11746129_a_at) / RFU IL23R (11737362_x_at) / Fold change /veh IL23R (11737362_x_at) / RFU TMEM51 (11727254_a_at) / Fold change /veh TMEM51 (11727254_a_at) / RFU PIWIL2 (11732686_x_at) / Fold change /veh PIWIL2 (11732686_x_at) / RFU ORM1 (11744905_x_at) / Fold change /veh ORM1 (11744905_x_at) / RFU CCDC152 (11743942_at) / Fold change /veh CCDC152 (11743942_at) / RFU ECM1 (11717891_a_at) / Fold change /veh ECM1 (11717891_a_at) / RFU IL23R (11748794_a_at) / Fold change /veh IL23R (11748794_a_at) / RFU TNFAIP8L3 (11732012_x_at) / Fold change /veh TNFAIP8L3 (11732012_x_at) / RFU MBOAT4 (11741988_at) / Fold change /veh MBOAT4 (11741988_at) / RFU 11764193_at / Fold change /veh 11764193_at / RFU TMEM53 (11763286_at) / Fold change /veh TMEM53 (11763286_at) / RFU MAGEB2 (11727129_at) / Fold change /veh MAGEB2 (11727129_at) / RFU TMEM200A (11744735_a_at) / Fold change /veh TMEM200A (11744735_a_at) / RFU CCDC152 (11751479_a_at) / Fold change /veh CCDC152 (11751479_a_at) / RFU FAM211A (11726209_a_at) / Fold change /veh FAM211A (11726209_a_at) / RFU RGS16 (11746705_a_at) / Fold change /veh RGS16 (11746705_a_at) / RFU VCAN (11755009_s_at) / Fold change /veh VCAN (11755009_s_at) / RFU RHOB (11743442_s_at) / Fold change /veh RHOB (11743442_s_at) / RFU RGS16 (11720943_a_at) / Fold change /veh RGS16 (11720943_a_at) / RFU RGS16 (11720944_at) / Fold change /veh RGS16 (11720944_at) / RFU, VPS4B / Fold change vs veh, VPS4B / RFU, CREB1 / Fold change vs veh, CREB1 / RFU, DNAJC13 / Fold change vs veh, DNAJC13 / RFU, GNAQ / Fold change vs veh, GNAQ / RFU, CDK5R1 / Fold change vs veh, CDK5R1 / RFU, ZRANB3 / Fold change vs veh, ZRANB3 / RFU, CUL4A / Fold change vs veh, CUL4A / RFU, CCNY / Fold change vs veh, CCNY / RFU, UFL1 / Fold change vs veh, UFL1 / RFU, COG3 / Fold change vs veh, COG3 / RFU, DIAPH2 / Fold change vs veh, DIAPH2 / RFU, SKA2 / Fold change vs veh, SKA2 / RFU, AFF3 / Fold change vs veh, AFF3 / RFU, LMF1 / Fold change vs veh, LMF1 / RFU, IPO11 / Fold change vs veh, IPO11 / RFU, DFFB / Fold change vs veh, DFFB / RFU, FOXP1 / Fold change vs veh, FOXP1 / RFU, CARD8 / Fold change vs veh, CARD8 / RFU, STRN3 / Fold change vs veh, STRN3 / RFU, ADK / Fold change vs veh, ADK / RFU, RASSF2 / Fold change vs veh, RASSF2 / RFU, WIPF1 / Fold change vs veh, WIPF1 / RFU, LARP1B / Fold change vs veh, LARP1B / RFU, RASA1 / Fold change vs veh, RASA1 / RFU, RB1 / Fold change vs veh, RB1 / RFU, PPFIA1 / Fold change vs veh, PPFIA1 / RFU, MAT2A / Fold change vs veh, MAT2A / RFU, CCT5 / Fold change vs veh, CCT5 / RFU, WDR92 / Fold change vs veh, WDR92 / RFU, CUX1 / Fold change vs veh, CUX1 / RFU, TTC7A / Fold change vs veh, TTC7A / RFU, TMEM135 / Fold change vs veh, TMEM135 / RFU, DEPTOR / Fold change vs veh, DEPTOR / RFU, CPM / Fold change vs veh, CPM / RFU, DNAJB6 / Fold change vs veh, DNAJB6 / RFU, CACNA2D3 / Fold change vs veh, CACNA2D3 / RFU, DTX4 / Fold change vs veh, DTX4 / RFU, TFCP2 / Fold change vs veh, TFCP2 / RFU, GMCL1 /// GMCL1P1 / Fold change vs veh, GMCL1 /// GMCL1P1 / RFU, AEBP2 / Fold change vs veh, AEBP2 / RFU, SNHG1 /// SNORD22 /// SNORD25 /// SNORD26 /// SNORD27 /// SNORD28 /// SNORD29 /// SNORD31 / Fold change vs veh, SNHG1 /// SNORD22 /// SNORD25 /// SNORD26 /// SNORD27 /// SNORD28 /// SNORD29 /// SNORD31 / Fold change (Aza/veh), C12orf56 (ProbeSet 11735607_a_at) / Fold change (ACY-1035/veh), C12orf56 (ProbeSet 11735607_a_at) / Fold change (Aza/veh), FGFR1OP (ProbeSet 11751329_s_at) / Fold change (ACY-1035/veh), FGFR1OP (ProbeSet 11751329_s_at) / Fold change (Aza/veh), VPS36 (ProbeSet 11739960_a_at) / Fold change (ACY-1035/veh), VPS36 (ProbeSet 11739960_a_at) / RFU SYPL1 (11715823_x_at) / Fold change /veh SYPL1 (11715823_x_at) / RFU IGFBP7 (11715501_s_at) / Fold change /veh IGFBP7 (11715501_s_at) / RFU REEP3 (11722064_at) / Fold change /veh REEP3 (11722064_at) / RFU IGLL1 (11728026_x_at) / Fold change /veh IGLL1 (11728026_x_at): dose or concentration left out as unconfirmed. As to conditions: ProbeSet 11762504_a_at; LIST D.

`Nc1ncn([C@@H]2O[C@H](CO)[C@@H](O)[C@H]2O)c(=O)n1` [azacitidine]: the “Fold change vs veh, ZRANB3” value came to 0.82.
